How the values were obtained:
[1] = tested on: platelets; test: Platelet rich plasma supplemented with 2% lysine citrate, 25 days storage; assay type: cell-based; settings: room temperature
Description: […]. In this experiment plasma is centrifuged to create platelet rich plasma (PRP). […]. For the first fifteen days the platelet parameters remain essentially unchanged. During the next five day period (days 16-20) the platelet count drifts down slightly and LDH level increases slightly. During the last five days (days 21-25), the platelet count drops off rather precipitously and the LDH level rises rather steeply. Yet clotting time remains relatively constant.

[2] = tested on: platelets; test: Platelet preservation in platelet rich plasma with 1% citrate (lysine citrate); assay type: cell-based; settings: PRP 1% citrate, room temperature
Experimental: In the experiment anticoagulated blood (0.4% citrate by weight) was centrifuged to produce platelet Rich Plasma (PRP). To test samples of PRP citric acid stock solution containing sufficient lysine to bring the solution pH to 7.0 was added to increase the citrate concentration to 1% by weight. Following this addition the pH of the mixture was 6.7. It will be apparent to one of skill in the art that the precise ratio of basic amino acid to citrate can be altered to adjust the pH of the either the stock solution or the final blood mixture. One sample of original PRP was used as the Normal Control, and one sample of the lysine citrate PRP was used as the Citrate Control. One sample of original PRP was inoculated with cultured Staphylococcus epidermidis to a final concentration of about 10 cfu/ml—this formed the Spiked Normal. […] The samples were incubated at room temperature for five days. Each day the number of platelets in each sample was counted; each sample was also tested for LDH (lactate dehydrogenase) and for the ability to induce a clot. Following the tests an aliquot of each sample was subcultured on nutrient agar and incubated under growth conditions.

[3] = Day 1, spiked with Staphylococcus epidermidis about 10 cfu/ml
[4] = Day 2, spiked with Staphylococcus epidermidis about 10 cfu/ml
[5] = Day 3, spiked with Staphylococcus epidermidis about 10 cfu/ml
[6] = Day 4, spiked with Staphylococcus epidermidis about 10 cfu/ml
[7] = Day 5, spiked with Staphylococcus epidermidis about 10 cfu/ml

## NCCCC[C@H](N)C(=O)O.O=C(O)CC(O)(CC(=O)O)C(=O)O [Lysine Citrate, lysine citrate]
[1]; Day 1, PRP
  Clotting time: 30 s
  Count (platelets): 3.80 × 10^5 per μl
  LDH: 106 IU/L
[1]; Day 2, PRP
  Clotting time: 30 s
  Count (platelets): 3.75 × 10^5 per μl
  LDH: 108 IU/L
[1]; Day 3, PRP
  Clotting time: 30 s
  Count (platelets): 3.76 × 10^5 per μl
  LDH: 109 IU/L
[1]; Day 4, PRP
  Clotting time: 30 s
  Count (platelets): 3.80 × 10^5 per μl
  LDH: 108 IU/L
[1]; Day 5, PRP
  Clotting time: 31 s
  Count (platelets): 3.76 × 10^5 per μl
  LDH: 108 IU/L
[1]; Day 6, PRP
  Clotting time: 31 s
  Count (platelets): 3.75 × 10^5 per μl
  LDH: 106 IU/L
[1]; Day 7, PRP
  Clotting time: 32 s
  Count (platelets): 3.76 × 10^5 per μl
  LDH: 109 IU/L
[1]; Day 8, PRP
  Clotting time: 30 s
  Count (platelets): 3.76 × 10^5 per μl
  LDH: 109 IU/L
[1]; Day 9, PRP
  Clotting time: 31 s
  Count (platelets): 3.80 × 10^5 per μl
  LDH: 108 IU/L
[1]; Day 10, PRP
  Clotting time: 30 s
  Count (platelets): 3.77 × 10^5 per μl
  LDH: 109 IU/L
[1]; Day 11, PRP
  Clotting time: 29 s
  Count (platelets): 3.77 × 10^5 per μl
  LDH: 109 IU/L
[1]; Day 12, PRP
  Clotting time: 30 s
  Count (platelets): 3.75 × 10^5 per μl
  LDH: 108 IU/L
[1]; Day 13, PRP
  Clotting time: 30 s
  Count (platelets): 3.81 × 10^5 per μl
  LDH: 110 IU/L
[1]; Day 14, PRP
  Clotting time: 31 s
  Count (platelets): 3.80 × 10^5 per μl
  LDH: 110 IU/L
[1]; Day 15, PRP
  Clotting time: 30 s
  Count (platelets): 3.76 × 10^5 per μl
  LDH: 109 IU/L
[1]; Day 16, PRP
  Clotting time: 29 s
  Count (platelets): 3.75 × 10^5 per μl
  LDH: 109 IU/L
[1]; Day 17, PRP
  Clotting time: 30 s
  Count (platelets): 3.74 × 10^5 per μl
  LDH: 108 IU/L
[1]; Day 18, PRP
  Clotting time: 30 s
  Count (platelets): 3.76 × 10^5 per μl
  LDH: 110 IU/L
[1]; Day 19, PRP
  Clotting time: 31 s
  Count (platelets): 3.74 × 10^5 per μl
  LDH: 111 IU/L
[1]; Day 20, PRP
  Clotting time: 30 s
  Count (platelets): 3.74 × 10^5 per μl
  LDH: 111 IU/L
[1]; Day 21, PRP
  Clotting time: 30 s
  Count (platelets): 3.56 × 10^5 per μl
  LDH: 103 IU/L
[1]; Day 22, PRP
  Clotting time: 31 s
  Count (platelets): 3.42 × 10^5 per μl
  LDH: 105 IU/L
[1]; Day 23, PRP
  Clotting time: 26 s
  Count (platelets): 3.28 × 10^5 per μl
  LDH: 122 IU/L
[1]; Day 24, PRP
  Clotting time: 29 s
  Count (platelets): 2.91 × 10^5 per μl
  LDH: 159 IU/L
[1]; Day 25, PRP
  Clotting time: 26 s
  Count (platelets): 2.24 × 10^5 per μl
  LDH: 279 IU/L
[2]; [3]
  Clot time: 29 s
  Count (platelets): 2.99 × 10^5 per μl
  LDH: 131 IU/L
[2]; Day 1, unspiked
  Clot time: 35 s
  Count (platelets): 3.2 × 10^5 per μl
  LDH: 133 IU/L
[2]; [4]
  Clot time: 32 s
  Count (platelets): 3.0 × 10^5 per μl
  LDH: 130 IU/L
[2]; Day 2, unspiked
  Clot time: 30 s
  Count (platelets): 3.1 × 10^5 per μl
  LDH: 133 IU/L
[2]; [5]
  Clot time: 30 s
  Count (platelets): 3.0 × 10^5 per μl
  LDH: 133 IU/L
[2]; Day 3, unspiked
  Clot time: 32 s
  Count (platelets): 3.3 × 10^5 per μl
  LDH: 134 IU/L
[2]; [6]
  Clot time: 30 s
  Count (platelets): 3.2 × 10^5 per μl
  LDH: 131 IU/L
[2]; Day 4, unspiked
  Clot time: 35 s
  Count (platelets): 3.5 × 10^5 per μl
  LDH: 133 IU/L
[2]; [7]
  Clotting time: 32 s
  Count (platelets): 3.0 × 10^5 per μl
  LDH: 131 IU/L
[2]; Day 5, unspiked
  Clotting time: 33 s
  Count (platelets): 3.1 × 10^5 per μl
  LDH: 135 IU/L

Source: patent publication US20090123907A1 (priority 2004, published 2009)
